The text below walks through data of US9730914B2, “3,5-diaminopyrazole kinase inhibitors” (Axikin Pharmaceuticals, Inc., priority 2014, dated 2017).

Assay [1] has as its target T1, kinase domain protein of RC kinase (RCK) (Homo sapiens, UniProt Q56UN5).
T1 construct: made in house; host or cells: E. coli BL21-derived host (T7 phage) or HEK-293
T1 sequence (Q56UN5 1061-1324 limits assumed): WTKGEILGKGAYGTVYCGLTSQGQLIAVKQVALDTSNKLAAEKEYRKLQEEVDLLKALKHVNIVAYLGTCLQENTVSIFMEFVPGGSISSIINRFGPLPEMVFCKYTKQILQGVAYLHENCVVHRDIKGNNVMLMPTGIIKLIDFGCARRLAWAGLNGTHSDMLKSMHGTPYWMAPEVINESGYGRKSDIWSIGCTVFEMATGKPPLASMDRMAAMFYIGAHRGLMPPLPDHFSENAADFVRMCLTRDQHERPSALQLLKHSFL
Put plainly: Kinase competition binding assay (Kd, qPCR readout), RC kinase. The conditions noted are these: Kd class, read-out: RCK Activity Level. The method, then: (§1) For most assays, kinase-tagged T7 phage strains were prepared in an E. coli host derived from the BL21 strain. E. coli were grown to log-phase and infected with T7 phage and incubated with shaking at 32° C. until lysis. The lysates were centrifuged and filtered to remove cell debris. The remaining kinases were produced in HEK-293 cells and subsequently tagged with DNA for quantitative PCR (qPCR) detection.
(§2) Streptavidin-coated magnetic beads were treated with biotinylated small molecule ligands for 30 minutes at room temperature to generate affinity resins for kinase assays. The liganded beads were blocked with excess biotin and washed with blocking buffer (SeaBlock (Pierce), 1% BSA, 0.05% Tween 20, 1 mM DTT) to remove unbound ligand and to reduce nonspecific binding. Binding reactions were assembled by combining kinases, liganded affinity beads, and test compounds in 1× binding buffer (20% SeaBlock, 0.17×PBS, 0.05% Tween 20, 6 mM DTT). All reactions were performed in polystyrene 96-well plates in a final volume of 0.135 mL. The assay plates were incubated at room temperature with shaking for 1 hour and the affinity beads were washed with wash buffer (1×PBS, 0.05% Tween 20). The beads were then re-suspended in elution buffer (1×PBS, 0.05% Tween 20, 0.5 μM non-biotinylated affinity ligand) and incubated at room temperature with shaking for 30 minutes. The kinase concentration in the eluates was measured by qPCR.
(§3) An 11-point 3-fold serial dilution of each test compound was prepared in 100% DMSO at 100× final test concentration and subsequently diluted to 1× in the assay (final DMSO concentration=1%). Most Kd values were determined using a compound top concentration=30,000 nM. If the initial Kd determined was <0.5 nM, (the lowest concentration tested), the measurement was repeated with a serial dilution starting at a lower top concentration. A more detailed description of this assay may be found in Fabian, M. A. et al. Nat. Biotechnol. 2005, 23, 329-336, which is incorporated herein in its entirety.
(§4) The biological results of inhibition of the kinase domain protein of RC kinase (RCK) and JAK2 and JAK3 are summarized in Tables 2 and 3, wherein A represents a Kd of <50 nM; B represents 50 nM<Kd<100 nM; C represents 100 nM<Kd<1000 nM; and D represents a Kd>1000 nM.
Background: Real-time PCR tracks product formation cycle by cycle.

The target of assay [2] is T2, JAK2 (Homo sapiens, UniProt O60674).
T2 construct: made in house; host or cells: E. coli BL21-derived host (T7 phage) or HEK-293
T2 sequence (O60674 840-1132 limits assumed): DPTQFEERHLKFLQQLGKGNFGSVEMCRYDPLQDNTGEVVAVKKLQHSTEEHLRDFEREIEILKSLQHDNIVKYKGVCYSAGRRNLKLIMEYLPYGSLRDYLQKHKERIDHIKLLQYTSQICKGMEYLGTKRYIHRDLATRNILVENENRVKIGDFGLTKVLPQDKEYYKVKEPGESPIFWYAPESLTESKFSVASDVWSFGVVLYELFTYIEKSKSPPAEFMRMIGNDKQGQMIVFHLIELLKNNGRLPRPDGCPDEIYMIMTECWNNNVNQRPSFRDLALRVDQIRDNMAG
Put plainly: Kinase competition binding assay (Kd, qPCR readout), JAK2. The note with it: for Kd: Kd class, JAK2, read-out: JAK2 Activity Level; for RCK:JAK2 selectivity ratio: ratio Kd (JAK2): Kd(RCK). The method, then: as §1, §2, §3, §4
Additionally, RCK:JAK2 selectivity, as measured by the ratio Kd (JAK2): Kd(RCK) is represented as follows: A represents Kd (JAK2): Kd (RCK)>100; B represents 10<Kd(JAK2): Kd (RCK)<100; C represents 1<Kd (JAK2): Kd (RCK)<10; and D represents Kd(JAK2): Kd (RCK)<1.

In assay [3] the target is T3, JAK3 (Homo sapiens, UniProt P52333).
T3 construct: made in house; host or cells: E. coli BL21-derived host (T7 phage) or HEK-293
T3 sequence (P52333 811-1124 limits assumed): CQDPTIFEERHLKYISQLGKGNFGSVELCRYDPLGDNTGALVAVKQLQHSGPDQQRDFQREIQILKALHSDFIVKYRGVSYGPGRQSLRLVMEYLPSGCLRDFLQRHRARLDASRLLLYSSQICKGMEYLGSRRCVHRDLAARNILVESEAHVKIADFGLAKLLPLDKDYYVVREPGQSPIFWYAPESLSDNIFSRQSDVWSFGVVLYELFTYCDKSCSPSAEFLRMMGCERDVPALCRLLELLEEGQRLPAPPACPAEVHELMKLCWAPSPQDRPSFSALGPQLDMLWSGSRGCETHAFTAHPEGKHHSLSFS
Put plainly: Kinase competition binding assay (Kd, qPCR readout), JAK3. The conditions noted are these: for Kd: Kd class, JAK3, read-out: JAK3 Activity Level; for RCK:JAK3 selectivity ratio: ratio Kd (JAK3): Kd (RCK). On the procedure:
as §1, §2, §3, §4
Similarly, RCK:JAK3 selectivity, as measured by the ratio Kd (JAK3): Kd (RCK) is represented as follows: A represents Kd (JAK3): Kd (RCK)>100; B represents 10<Kd (JAK3): Kd (RCK)<100; C represents 1<Kd (JAK3): Kd (RCK)<10; and D represents Kd (JAK3): Kd(RCK)<1.

As to `Cc1cc(Nc2n[nH]c(NCc3cc(C)c(O)c(C)c3)c2C(N)=O)ccc1N1CCN(C)CC1` [Compound 29, 5-((4-hydroxy-3,5-dimethylbenzyl)amino)-3-((3-methyl-4-(4-methylpiperazin-1-yl)phenyl)amino)-1H-pyrazole-4-carboxamide], the results for the Kd in assay [1], in assay [2] and in assay [3] were less than 50 nM, 100 to 1000 nM and greater than 1000 nM, respectively. Moreover, in assay [2], the “RCK:JAK2 selectivity ratio” value is listed as “B (B represents 10<Kd(JAK2): Kd (RCK)<100)”. In addition, the “RCK:JAK3 selectivity ratio” value in assay [3] is listed as “B (B represents 10<Kd (JAK3): Kd (RCK)<100)”.

Consider `Cc1cc(Nc2n[nH]c(NCc3cc(C)c(O)c(C)c3)c2C(N)=O)ccc1N1CCCCC1` [Compound 30, 5-((4-hydroxy-3,5-dimethylbenzyl)amino)-3-((3-methyl-4-(piperidin-1-yl)phenyl)amino)-1H-pyrazole-4-carboxamide], for which the Kd in assay [1] was 50 to 100 nM; in assay [2], greater than 1000 nM; in assay [3], greater than 1000 nM. Further, the “RCK:JAK2 selectivity ratio” value in assay [2] is “B (B represents 10<Kd(JAK2): Kd (RCK)<100)”. The “RCK:JAK3 selectivity ratio” value in assay [3] is on record as “B (B represents 10<Kd (JAK3): Kd (RCK)<100)”.

As to `Cc1cc(CNc2[nH]nc(Nc3ccc(N4CCN(Cc5ccccc5)CC4)cc3)c2C(N)=O)cc(C)c1O` [Compound 31, 3-((4-(4-benzylpiperazin-1-yl)phenyl)amino)-5-((4-hydroxy-3,5-dimethylbenzyl)amino)-1H-pyrazole-4-carboxamide], in assay [1], the Kd is less than 50 nM. Besides, in assay [2], the Kd was greater than 1000 nM and the “RCK:JAK2 selectivity ratio” value is given as “B (B represents 10<Kd(JAK2): Kd (RCK)<100)”. In assay [3], the Kd was greater than 1000 nM and the “RCK:JAK3 selectivity ratio” value was “B (B represents 10<Kd (JAK3): Kd (RCK)<100)”.

Take `Cc1cc(CNc2[nH]nc(Nc3ccc(N4CCS(=O)(=O)CC4)cc3)c2C(N)=O)cc(C)c1O` [Compound 32, 3-((4-(1,1-dioxidothiomorpholino)phenyl)amino)-5-((4-hydroxy-3,5-dimethylbenzyl)amino)-1H-pyrazole-4-carboxamide]: the values for the Kd in assay [1], in assay [2] and in assay [3] were less than 50 nM, 100 to 1000 nM and 100 to 1000 nM, respectively. For the same compound, the “RCK:JAK2 selectivity ratio” value in assay [2] is “C (C represents 1<Kd (JAK2): Kd (RCK)<10)”. In addition, the “RCK:JAK3 selectivity ratio” value in assay [3] is on record as “B (B represents 10<Kd (JAK3): Kd (RCK)<100)”.

For `Cc1cc(CNc2[nH]nc(Nc3ccc(N4CCCCC4)cn3)c2C(N)=O)cc(C)c1O` [Compound 33, 5-((4-hydroxy-3,5-dimethylbenzyl)amino)-3-((5-(piperidin-1-yl)pyridin-2-yl)amino)-1H-pyrazole-4-carboxamide], the Kd in assay [1] lay in the range of 50 to 100 nM. In addition, in assay [2], the Kd lay in the range of 100 to 1000 nM and the “RCK:JAK2 selectivity ratio” value is listed as “C (C represents 1<Kd (JAK2): Kd (RCK)<10)”. In assay [3], the Kd was greater than 1000 nM and the “RCK:JAK3 selectivity ratio” value is “B (B represents 10<Kd (JAK3): Kd (RCK)<100)”.

With `Cc1cc(CNc2[nH]nc(Nc3ccc(N4CCC(Cl)CC4)cc3)c2C(N)=O)cc(C)c1O` [Compound 34, 3-((4-(4-chloropiperidin-1-yl)phenyl)amino)-5-((4-hydroxy-3,5-dimethylbenzyl)amino)-1H-pyrazole-4-carboxamide], the Kd in assay [1] was in the range of 50 to 100 nM. In assay [2], the Kd is greater than 1000 nM and the “RCK:JAK2 selectivity ratio” value is reported as “B (B represents 10<Kd(JAK2): Kd (RCK)<100)”. In assay [3], the Kd is greater than 1000 nM and the “RCK:JAK3 selectivity ratio” value is listed as “B (B represents 10<Kd (JAK3): Kd (RCK)<100)”.

Turning to `Cc1cc(CNc2[nH]nc(Nc3ccc(CN4CCCC4)cc3)c2C(N)=O)cc(C)c1O` [Compound 35, 5-((4-hydroxy-3,5-dimethylbenzyl)amino)-3-((4-(pyrrolidin-1-ylmethyl)phenyl)amino)-1H-pyrazole-4-carboxamide], in assay [1], the Kd was 50 to 100 nM. Also, in assay [2], the Kd fell in the range of 100 to 1000 nM and the “RCK:JAK2 selectivity ratio” value was “C (C represents 1<Kd (JAK2): Kd (RCK)<10)”. Moreover, in assay [3], the Kd was greater than 1000 nM and the “RCK:JAK3 selectivity ratio” value is recorded as “B (B represents 10<Kd (JAK3): Kd (RCK)<100)”.

For `Cc1cc(CNc2[nH]nc(Nc3ccc(N4CCC(N(C)C)CC4)cc3)c2C(N)=O)cc(C)c1O` [Compound 36, 3-((4-(4-(dimethylamino)piperidin-1-yl)phenyl)amino)-5-((4-hydroxy-3,5-dimethylbenzyl)amino)-1H-pyrazole-4-carboxamide], the Kd in assay [1] was less than 50 nM. Also, in assay [2], the Kd was in the range of 100 to 1000 nM and the “RCK:JAK2 selectivity ratio” value is “B (B represents 10<Kd(JAK2): Kd (RCK)<100)”. In assay [3], the Kd is greater than 1000 nM and the “RCK:JAK3 selectivity ratio” value is listed as “A (A represents Kd (JAK3): Kd (RCK)>100)”.

In the case of `Cc1cc(CNc2[nH]nc(Nc3ccc(N4CCOCC4)c(F)c3)c2C(N)=O)cc(C)c1O` [Compound 37, 3-((3-fluoro-4-morpholinophenyl)amino)-5-((4-hydroxy-3,5-dimethylbenzyl)amino)-1H-pyrazole-4-carboxamide], in assay [1], the Kd was less than 50 nM. In addition, in assay [2], the Kd is greater than 1000 nM and the “RCK:JAK2 selectivity ratio” value is on record as “B (B represents 10<Kd(JAK2): Kd (RCK)<100)”. Moreover, in assay [3], the Kd is greater than 1000 nM and the “RCK:JAK3 selectivity ratio” value was “A (A represents Kd (JAK3): Kd (RCK)>100)”.

For `Cc1cc(CNc2[nH]nc(Nc3ccc(-c4cnco4)cc3)c2C(N)=O)cc(C)c1O` [Compound 38, 5-((4-hydroxy-3,5-dimethylbenzyl)amino)-3-((4-(oxazol-5-yl)phenyl)amino)-1H-pyrazole-4-carboxamide], the Kd in assay [1] was in the range of 100 to 1000 nM. In assay [2], the Kd was greater than 1000 nM and the “RCK:JAK2 selectivity ratio” value is on record as “A (A represents Kd (JAK2): Kd (RCK)>100)”. Further, in assay [3], the Kd was greater than 1000 nM and the “RCK:JAK3 selectivity ratio” value is “A (A represents Kd (JAK3): Kd (RCK)>100)”.

With `Cc1cc(CNc2[nH]nc(Nc3ccc(N4CCN(C(=O)N5CCOCC5)CC4)cc3)c2C(N)=O)cc(C)c1O` [Compound 39, 5-((4-hydroxy-3,5-dimethylbenzyl)amino)-3-((4-(4-(morpholine-4-carbonyl)piperazin-1-yl)phenyl)amino)-1H-pyrazole-4-carboxamide], the results for the Kd in assay [1], in assay [2] and in assay [3] were 50 to 100 nM, less than 50 nM and less than 50 nM, respectively. Also, the “RCK:JAK2 selectivity ratio” value in assay [2] is “B (B represents 10<Kd(JAK2): Kd (RCK)<100)”. For the same compound, in assay [3], the “RCK:JAK3 selectivity ratio” value is on record as “B (B represents 10<Kd (JAK3): Kd (RCK)<100)”.

Turning to `CC(=O)Nc1cccc(Nc2n[nH]c(NCc3cc(C)c(O)c(C)c3)c2C(N)=O)c1` [Compound 40, 3-((3-acetamidophenyl)amino)-5-((4-hydroxy-3,5-dimethylbenzyl)amino)-1H-pyrazole-4-carboxamide], the Kd in assay [1] was greater than 1000 nM. Also, in assay [2], the Kd is greater than 1000 nM and the “RCK:JAK2 selectivity ratio” value was “C (C represents 1<Kd (JAK2): Kd (RCK)<10)”. In addition, in assay [3], the Kd is greater than 1000 nM and the “RCK:JAK3 selectivity ratio” value is “C (C represents 1<Kd (JAK3): Kd (RCK)<10)”.

In the case of `Cc1cc(CNc2[nH]nc(Nc3ccc(N4CCN(C)CC4)c(Cl)c3)c2C(N)=O)cc(C)c1O` [Compound 41, 3-((3-chloro-4-(4-methylpiperazin-1-yl)phenyl)amino)-5-((4-hydroxy-3,5-dimethylbenzyl)amino)-1H-pyrazole-4-carboxamide], the Kd in assay [1] was less than 50 nM. In assay [2], the Kd was in the range of 100 to 1000 nM and the “RCK:JAK2 selectivity ratio” value is reported as “B (B represents 10<Kd(JAK2): Kd (RCK)<100)”. Besides, in assay [3], the Kd is greater than 1000 nM and the “RCK:JAK3 selectivity ratio” value is “A (A represents Kd (JAK3): Kd (RCK)>100)”.
